Patent publication US20180194822A1, “DISRUPTION OF THE INTERACTION BETWEEN AMYLOID BETA PEPTIDE AND DIETARY LIPIDS” (THE TRUSTEES OF COLUMBIA UNIVERSITY IN THE CITY OF NEW YORK, priority 2015, published 2018)
“Also recorded” adds a separate entry of the source.

Key:
APPsw+ mice [1] = experiment: Open Field testing after intranasal SDPC; type: in vivo, mouse; conditions: 10 days intranasal low dose; does not reach significance
Description: FIGS. 4A-4D. 10 days treatment with low dose SDPC. (A) After 10 days treatment (Tx) with low dose phosphatidylcholine (PC) containing docosahexaenoyl (22:6) and stearoyl (18:0) acyl chains, 18:0-22:6 PC; 1-stearoyl-2-docosahexaenoyl-sn-glycero-3-phosphocholine (CAS Number 59403-52-0; Synonyms: 1-octadecanoyl-2-(4Z,7Z,10Z,13Z,16Z,19Z-docosahexaenoyl)-sn-glycero-3-phosphocholine and PC(18:0/22:6(4Z,7Z,10Z,13Z,16Z,19Z))) (SDPC) intranasally, nesting score was assessed as described before (114). The number of nestlettes (from 3 initially placed in cage) was estimated and exact weight of remaining nestlettes was determined in grams (g) from initial 3 nestlettes (approximately 2 g). (B) Activity during novel object recognition (NOR) training was assessed after 10 days intranasal SDPC. Grooming behavior, free rearing, wall rearing and center crossing events are shown and were summed in total events. (C) Time spent with each identical object during NOR training. (D) Activity during Open Field testing 24 hours after NOR training (note, no difference in novel object discrimination (NOD) index was found. Standard error is shown for means of Saline treated APPsw+(control) (n=4); SDPC treated APPsw+(n=5) and wild type receiving no treatment (n=4). Significance was determined for […] using Student's t-test. […]

APPsw+ mice [2] = experiment: Novel object recognition (NOR) and activity during NOR training after intranasal SDPC; type: in vivo, mouse
Description: FIGS. 4A-4D. 10 days treatment with low dose SDPC. (A) After 10 days treatment (Tx) with low dose phosphatidylcholine (PC) containing docosahexaenoyl (22:6) and stearoyl (18:0) acyl chains, 18:0-22:6 PC; 1-stearoyl-2-docosahexaenoyl-sn-glycero-3-phosphocholine (CAS Number 59403-52-0; Synonyms: 1-octadecanoyl-2-(4Z,7Z,10Z,13Z,16Z,19Z-docosahexaenoyl)-sn-glycero-3-phosphocholine and PC(18:0/22:6(4Z,7Z,10Z,13Z,16Z,19Z))) (SDPC) intranasally, nesting score was assessed as described before (114). The number of nestlettes (from 3 initially placed in cage) was estimated and exact weight of remaining nestlettes was determined in grams (g) from initial 3 nestlettes (approximately 2 g). (B) Activity during novel object recognition (NOR) training was assessed after 10 days intranasal SDPC. Grooming behavior, free rearing, wall rearing and center crossing events are shown and were summed in total events. (C) Time spent with each identical object during NOR training. (D) Activity during Open Field testing 24 hours after NOR training (note, no difference in novel object discrimination (NOD) index was found. Standard error is shown for means of Saline treated APPsw+(control) (n=4); SDPC treated APPsw+(n=5) and wild type receiving no treatment (n=4). Significance was determined for p>0.05 using Student's t-test.
FIGS. 5A-5B. Nesting and activity after 30 days treatment with escalating dose SDPC. (A) After 30 days treatment (Tx) with low dose SDPC intranasally, nesting score was assessed as described (114). The number of nestlettes remaining (from 3 initially placed in cage) was estimated and exact weight of remaining nestlettes was determined in grams (g remaining) from initial 3 nestlettes (approximately 2 g). (B) Activity during NOR training was assessed after 10 days intranasal SDPC. Grooming behavior, free rearing, wall rearing and center crossing events were summed in total events. Standard error is shown for means of Saline treated APPsw+(control) (n=4); SDPC treated APPsw+(n=5) and wild type receiving no treatment (n=4). Significance was determined for […] using Student's t-test.
FIGS. 6A-6B. 30 days treatment with escalating dose SDPC. (A) Mice were placed in a box with two identical objects for 10 minutes on the training day 1. […] One object was replaced with a novel object for testing (NOD index). The same data is shown to scale in FIG. 6B (Testing (immediate)). Twenty-four hours later (Testing (24 hours)), mice were placed in the same context with one of the original identical objects (Familiar) and a second novel object (Novel). The time spent with each object was recorded. (B) For testing, novel object discrimination (NOD index) is assessed using the equation [(time novel)/(time familiar+time novel)].
NOD index of 0.5 represents equal time with each object. NOD>0.5 represents more time spent with novel object. Standard error is shown for means of Saline treated APPsw+(control) (n=4); SDPC treated APPsw+(n=5) and wild type receiving no treatment (n=4). Significance was determined for p>0.05 using Student's t-test.
SDPC was obtained from Avanti Polar Lipids (850472C) in chloroform, dried under vacuum conditions and resuspended in 0.9% saline (0.9% sodium chloride injection, USP, NDC 0409-7983-61, Hospira) containing 0.2% (weight:volume) methyl cellulose (average Mn 40,000, viscosity: 400 cP, CAS 9004-67-5, Sigma-Aldrich 274429) to aid in solubilization. A control solution of 0.9% saline containing 0.2% methyl cellulose was prepared at the same time without SDPC. A concentration of 3 mg/ml was used for doses 1-15 and 12 mg/ml was used for doses 16-18 (FIG. 3). Brief (3-5 minutes) bath sonication was used to improve solubility of 12 mg/ml concentration.
Mice were treated for 10 days at a low dose of SDPC intranasally administered 2.5 uL each nostril (5 μL total dose) for 0.5 mg/kg every other day assuming average mouse weight of 30 g (0.03 kg) (FIG. 3). […]

APPsw+ mice [3] = experiment: as above; type: in vivo, mouse; conditions: 30 days intranasal escalated dose (0.5 then 2 mg/kg), SDPC vs saline treated APPsw+
APPsw+ mice [4] = experiment: Nesting behavior after intranasal SDPC; type: in vivo, mouse; conditions: 10 days intranasal low dose 0.5 mg/kg every other day, vs saline treated APPsw+
Description: FIGS. 4A-4D. 10 days treatment with low dose SDPC. (A) After 10 days treatment (Tx) with low dose phosphatidylcholine (PC) containing docosahexaenoyl (22:6) and stearoyl (18:0) acyl chains, 18:0-22:6 PC; 1-stearoyl-2-docosahexaenoyl-sn-glycero-3-phosphocholine (CAS Number 59403-52-0; Synonyms: 1-octadecanoyl-2-(4Z,7Z,10Z,13Z,16Z,19Z-docosahexaenoyl)-sn-glycero-3-phosphocholine and PC(18:0/22:6(4Z,7Z,10Z,13Z,16Z,19Z))) (SDPC) intranasally, nesting score was assessed as described before (114). The number of nestlettes (from 3 initially placed in cage) was estimated and exact weight of remaining nestlettes was determined in grams (g) from initial 3 nestlettes (approximately 2 g). (B) Activity during novel object recognition (NOR) training was assessed after 10 days intranasal SDPC. […] (D) Activity during Open Field testing 24 hours after NOR training (note, no difference in novel object discrimination (NOD) index was found. Standard error is shown for means of Saline treated APPsw+(control) (n=4); SDPC treated APPsw+(n=5) and wild type receiving no treatment (n=4). Significance was determined for […] using Student's t-test.
FIGS. 5A-5B. […] (A) After 30 days treatment (Tx) with low dose SDPC intranasally, nesting score was assessed as described (114). […] (B) Activity during NOR training was assessed after 10 days intranasal SDPC. […] Significance was determined for […] using Student's t-test. […]

[5] = molecular target: T1, Aβ42 peptide fluorescently tagged with FAM (Homo sapiens, UniProt P05067); experiment: Lipid binding assay: Aβ42-FAM on lipid-coated maleic anhydride plates
T1 construct: SensoLyte Fluorescent β-Amyloid1-42 Sampler Kit, Anaspec; purchased Anaspec SensoLyte Fluorescent β-Amyloid1-42 Sampler Kit (catalogue number not given)
Source text: Maleic Anhydride Activated plates (Pierce Amine-binding, 96-well plates, Thermo Scientific) were washed in wash buffer (PBS: Phosphate buffered saline, 0.15 M sodium chloride, pH 7.2 containing 0.05% Tween-20 Detergent, PBST, Thermo Scientific) 4 times to activate reactive maleic anhydride functional group. Amine containing lipids were PE containing docosahexaenoyl (22:6) and stearoyl (18:0) acyl chains (22:6/18:0 PE) or two stearoyl acyl chains (di18:0 PE) were from Avanti Polar Lipids. 22:6/18:0 PE was obtained in chloroform, dried down and solubilized at 200 pmol/μL in 1% n-octylglucoside (NOG, Santa Cruz) in PBS and sonicated for 5 minutes. di18:0 PE was obtained as a powder, solubilized at 200 pmol/μl in 1% NOG and bath sonicated for 5 minutes. […] Plates were then washed 4 times in PBST and fluorescence was detected using Tecan Infinite 200 at wavelengths 494/521 (excitation, emission) using the Optimal Gain setting. […]
(§1) Lipid containing long chain polyunsaturated fatty acid 22:6, docosahexaenoic acid (DHA) and an amine containing headgroup, phosphatidylethanoloamine (PE) was bound to maleic anhydride activated plates which bind to free primary amine functional groups at neutral and alkaline pH. […] Specific binding was calculated by subtracting background binding of di18:0 PE.

[6] = molecular target: Aβ:ApoE:lipid binding complex (Homo sapiens, UniProt P05067); experiment: ApoE binding assay: fluorescent Aβ42 on ApoE-coated plates in presence of lipid; parameters: SensoLyte Fluorescent β-Amyloid1-42 Sampler Kit, Anaspec; HiLyte Fluor (fluorescent label); purchased ApoE: rPeptide; labelled Aβ: Anaspec; conditions: only at very high concentrations of Aβ
Description: Plates were prepared as above and incubated with a constant amount of apolipoprotein E (ApoE, rPeptide) at 12.5 pmol/well FIG. 2A or 4 pmol/well FIG. 2B for 1 hour at room temperature with shaking. Plates were then blocked for 1 hour and washed with PB ST. Aβ labled with HiLyte (Anaspec) was prepared as above and mixed with increasing amount of lipid in constant concentration of NOG (0.0034%) in SuperBlock Blocking buffer and incubated overnight at 4° C. Binding was read as above at 503/528 excitation/emission).
Assays were done in triplicate wells and reported as mean+/−standard error. Binding kinetics and best fit curve fitting were accomplished using Prism Graphpad software.
Specific binding was determined by subtracting non-specific binding to the plate in absence of ApoE (no ApoE, 0).

[7] = molecular target: T2, Aβ42-FAM bound to lipids containing 22:6 (Homo sapiens, UniProt P05067); experiment: Competition of Aβ42-FAM binding to plate-bound 22:6 lipid; conditions: competitor 5×, 1 μM
T2 construct: SensoLyte Fluorescent β-Amyloid1-42 Sampler Kit, Anaspec; purchased Anaspec SensoLyte Fluorescent β-Amyloid1-42 Sampler Kit (catalogue number not given)
Source text: Maleic Anhydride Activated plates (Pierce Amine-binding, 96-well plates, Thermo Scientific) were washed in wash buffer (PBS: Phosphate buffered saline, 0.15 M sodium chloride, pH 7.2 containing 0.05% Tween-20 Detergent, PBST, Thermo Scientific) 4 times to activate reactive maleic anhydride functional group. Amine containing lipids were PE containing docosahexaenoyl (22:6) and stearoyl (18:0) acyl chains (22:6/18:0 PE) or two stearoyl acyl chains (di18:0 PE) were from Avanti Polar Lipids. […] Plates were then washed 4 times in PBST and fluorescence was detected using Tecan Infinite 200 at wavelengths 494/521 (excitation, emission) using the Optimal Gain setting.
Scrambled Aβ or unlabeled Aβ42 peptides (Anaspec) were diluted to 100 μM as above and then diluted in SuperBlock Blocking buffer to 1 μM, incubated for 1 hour at room temperature. Plates were washed and FAM fluorescence was read as above.
as §1

[8] = 30 days intranasal escalated dose

Q: How did the “activity in the open field test following NOR testing” value (APPsw+ mice [1]) turn out when `CC/C=C\C/C=C\C/C=C\C/C=C\C/C=C\C/C=C\CCC(=O)O[C@H](COC(=O)CCCCCCCCCCCCCCCCC)COP(=O)([O-])OCC[N+](C)(C)C` [SDPC, 1-stearoyl-2-docosahexaenoyl-sn-glycero-3-phosphocholine] was run?
A: continued improvement of activity level; also recorded: restored to the level of wild type non-treated mice

Q: And the “NOR discrimination (NOD index), tested 24 hours after training” value (APPsw+ mice [2]; 10 days intranasal low dose)?
A: no discrimination was found; also recorded: no difference

Q: What about the “activity during NOR training (wall rearing, free rearing, total activity level)” value (APPsw+ mice [2]; 10 days intranasal low dose 0.5 mg/kg every other day, vs saline treated APPsw+, 0.5 mg/kg) of the same compound?
A: trend toward improvement; also recorded: non-significant trend for improvement

Q: What about the “exploration: time spent with identical objects during NOR training” value (APPsw+ mice [2]; 10 days intranasal low dose 0.5 mg/kg every other day, 0.5 mg/kg) of the same compound?
A: trend toward improved exploratory behavior; also recorded: non-significant trend toward exploration activity

Q: What about the “NOR deficits: time spent with a novel object” value (APPsw+ mice [2]; [8]) of the same compound?
A: significant amelioration

Q: And the “novel object discrimination index (NOD index)” value (APPsw+ mice [2]; [8])?
A: significant changes were not observed; also recorded: trend for amelioration

Q: And the “discrimination of one displaced identical object (hippocampal function), training day 2” value (APPsw+ mice [2]; 30 days intranasal escalating dose)?
A: no discrimination was determined

Q: And the “number of wall rears and total activity events” value (APPsw+ mice [3])?
A: significant improvement

Q: And the nesting behavior (APPsw+ mice [4])?
A: trend toward improvement; also recorded: non-significant trend for improvement

Q: How did the “binding of Aβ42-FAM to plate-bound lipid” value ([5]; for di18:0: concentrations 10,000 pmol/well and below) turn out when `CCCCCCCCCCCCCCCCCC(=O)OC[C@H](COP(=O)(O)OCCN)OC(=O)CCCCCCCCCCCCCCCCC` [di18:0 PE] was run?
A: very low binding activity

Q: And the “binding of Aβ42-FAM to plate-bound lipid at the highest concentrations” value ([5]; highest lipid concentrations (above 10,000 pmol/well))?
A: modest binding

Q: And the “Aβ42-FAM binding to apoE in presence of lipid” value [6]?
A: only very minimally

Q: How did the “disruption of Aβ42-FAM binding to 22:6 lipid by competitor peptide” value [7] turn out when “unlabeled Aβ42 peptide: unlabeled Aβ42 peptide (Anaspec) used as competitor” was run?
A: competitively disrupted
